{"source": "paper PMC10293842", "about": "(Proceedings of the National Academy of Sciences of the …, 2023)", "key": {"[1]": {"system": "SARS-CoV-2 S (Wuhan-Hu-1) pseudo-typed VSV on VeroE6 cells", "assay_type": "cell-based"}, "[2]": {"system": "SARS-CoV-2 ancestral Wuhan strain in HEK293 ACE2+ TMPRSS2+ cells", "conditions": "24 h"}, "[3]": {"system": "Beta (B.1.351) S pseudotyped virus on VeroE6 cells", "assay_type": "cell-based, SARS-CoV-2"}, "[4]": {"system": "WIV-16-S pseudovirus on VeroE6 cells", "assay_type": "cell-based"}, "[5]": {"system": "SARS1-S pseudovirus on VeroE6 cells", "assay_type": "cell-based"}, "[6]": {"system": "Alpha (B.1.1.7) S pseudotyped virus on VeroE6 cells", "assay_type": "cell-based, SARS-CoV-2"}, "[7]": {"system": "Delta (B.1.617.2) S pseudotyped virus on VeroE6 cells", "assay_type": "cell-based, SARS-CoV-2"}, "[8]": {"system": "Omicron BA.2 S pseudotyped virus on VeroE6 cells", "assay_type": "cell-based, SARS-CoV-2"}, "[9]": {"system": "Omicron (B.1.1.529) BA.1 S pseudotyped virus on VeroE6 cells", "assay_type": "cell-based, SARS-CoV-2"}, "Omicron BA.1 and BA.2": {"system": "Omicron BA.1 and BA.2", "conditions": "cited from earlier work"}, "Omicron BA.1": {"system": "Omicron BA.1", "conditions": "cited from earlier work"}, "Omicron BA.2": {"system": "Omicron BA.2", "conditions": "cited from earlier work"}}, "note": "Positions of bridges follow the written chain, without caps; N, C: chain ends. Residues, ends and D or L forms follow the SMILES beside them.", "data": [{"compound": "CC[C@H](C)[C@@H]1NC(=O)[C@H](CCC(N)=O)NC(=O)[C@H](CCC(=O)O)NC(=O)[C@H](CCCNC(=N)N)NC(=O)[C@@H]2CCCN2C(=O)[C@H](CCCNC(=N)N)NC(=O)[C@H](CCCNC(=N)N)NC(=O)[C@H](Cc2ccc(O)cc2)NC(=O)CSC[C@@H](C(=O)NCC(N)=O)NC(=O)[C@H](Cc2ccccc2)NC(=O)[C@H](C(C)C)NC(=O)[C@H](Cc2c[nH]c3ccccc23)NC(=O)[C@H](CC(C)C)NC(=O)[C@H](CO)NC(=O)CNC(=O)[C@H]([C@@H](C)CC)NC(=O)[C@H]([C@@H](C)CC)NC1=O", "note": "[Peptide S1b3inL1] ({CH2CO}-YRRPREQIIIGSLWVFCG-NH2; thioether N-17)", "values": [{"measurement": "pseudoviral neutralization activity (in words)", "setting": "[1]", "result": "submicromolar concentrations"}, {"measurement": "EC50", "setting": "[2]", "result": 5.2, "unit": "µM"}, {"measurement": "fluctuation of EC50, Beta", "setting": "[3]", "result": 3.1, "unit": "fold"}, {"measurement": "change of infection inhibition, WIV-16-S", "setting": "[4]", "result": 4.1, "unit": "fold"}, {"measurement": "change of infection inhibition, SARS1-S", "setting": "[5]", "result": 1.3, "unit": "fold"}, {"measurement": "fluctuation of EC50, Alpha", "setting": "[6]", "result": 1.5, "unit": "fold"}, {"measurement": "fluctuation of EC50, Delta", "setting": "[7]", "result": 2.1, "unit": "fold"}, {"measurement": "fluctuation of EC50, Omicron BA.2", "setting": "[8]", "result": 2.1, "unit": "fold"}, {"measurement": "fluctuation of EC50, Omicron BA.1", "setting": "[9]", "result": 3.1, "unit": "fold"}]}, {"compound": "Cilgavimab [reference compound]", "values": [{"measurement": "decrease in activity", "setting": "Omicron BA.1 and BA.2", "result": 20, "unit": "fold"}]}, {"compound": "Sotrovimab", "values": [{"measurement": "loss in potency against Omicron BA.1", "setting": "Omicron BA.1", "result": "threefold"}, {"measurement": "loss in potency against Omicron BA.2", "setting": "Omicron BA.2", "result": 27, "unit": "fold"}]}]}
